From ChEMBL document CHEMBL5120927, “LEGO-Lipophosphonoxins: A Novel Approach in Designing Membrane Targeting Antimicrobials” (J Med Chem, 2022)

Columns and labels:
Enterococcus faecalis = experiment: Antibacterial activity against Enterococcus faecalis ATCC 29212 = CCM 4224 assessed as inhibition of bacterial growth incubated for 24 hrs by microdilution assay; type: functional
Staphylococcus aureus [1] = experiment: Antibacterial activity against Staphylococcus aureus ATCC 29213 = CCM 4223 assessed as inhibition of bacterial growth incubated for 24 hrs by microdilution assay; type: functional
Staphylococcus aureus [2] = experiment: Antibacterial activity against Staphylococcus aureus ATCC 29213 = CCM 4223 assessed as inhibition of bacterial growth incubated for 24 hrs in presence of BSA by microdilution assay; type: functional
Escherichia coli [3] = experiment: Antibacterial activity against Escherichia coli ATCC 25922 = CCM 3954 assessed as inhibition of bacterial growth incubated for 24 hrs by microdilution assay; type: functional
Escherichia coli [4] = experiment: Antibacterial activity against Escherichia coli ATCC 25922 = CCM 3954 assessed as inhibition of bacterial growth incubated for 24 hrs in presence of BSA by microdilution assay; type: functional
Pseudomonas aeruginosa [5] = experiment: Antibacterial activity against Pseudomonas aeruginosa ATCC 27853 = CCM 3955 assessed as inhibition of bacterial growth incubated for 24 hrs by microdilution assay; type: functional
[6] = Hemolytic activity in human RBC assessed as haemoglobin release measured after 3 hr; type: toxicity, cell-based, Erythrocyte; conditions: red blood cells (erythrocytes)
[7] = Gradient chromatographic hydrophobicity index of the compound at pH 3.7 by HPLC analysis; type: ADME
[8] = tested on: Staphylococcus epidermidis; experiment: Antibacterial activity against Staphylococcus epidermidis CCM 7221 assessed as inhibition of bacterial growth incubated for 24 hrs by microdilution assay; type: functional
Staphylococcus aureus [9] = experiment: Antibacterial activity against methicillin resistant Staphylococcus aureus 4591/A assessed as reduction in microbial growth incubated for 24 hrs by microdilution assay; type: functional
Escherichia coli [10] = experiment: Antibacterial activity against multidrug-resistant Escherichia coli CE5556 expressing CTX-M-15 assessed as reduction in microbial growth incubated for 24 hrs by microdilution assay; type: functional
Enterococcus faecium = experiment: Antibacterial activity against vancomycin resistant Enterococcus faecium 419/ANA assessed as reduction in microbial growth incubated for 24 hrs by microdilution assay; type: functional
Pseudomonas aeruginosa [11] = experiment: Antibacterial activity against multidrug-resistant Pseudomonas aeruginosa assessed as reduction in microbial growth incubated for 24 hrs by microdilution assay; type: functional

| SMILES | MIC (Enterococcus faecalis) [µg/mL] | MIC (Staphylococcus aureus [1]) [µg/mL] | MIC (Staphylococcus aureus [2]) [µg/mL] | MIC (Escherichia coli [3]) [µg/mL] | MIC (Escherichia coli [4]) [µg/mL] | MIC (Pseudomonas aeruginosa [5]) [µg/mL] | HC50 at 3 h [6] [µg/mL] | CHI [7] | MIC [8] [µg/mL] | MIC (Staphylococcus aureus [9]) [µg/mL] | MIC (Escherichia coli [10]) [µg/mL] | MIC (Enterococcus faecium) [µg/mL] | MIC (Pseudomonas aeruginosa [11]) [µg/mL] |
| --- | --- | --- | --- | --- | --- | --- | --- | --- | --- | --- | --- | --- | --- |
| CCCCCCCCCCOP(=O)(CCN(CCCN)CCCN)OCCCCCCCCCCOP(=O)(CCN(CCCN)CCCN)OCCCCCCCCCC.Cl.Cl.Cl.Cl.Cl.Cl (configuration not stated) | 2 | 2 | 1 | > 2 | 16 | 4 | 5.2 | 46.9 | 1 | 1 | 2 | 2 | 4 |
| CCCCCCOP(=O)(CCN(CCN)CCN)OCCCCCCCCOP(=O)(CCN(CCN)CCN)OCCCCCC.Cl.Cl.Cl.Cl.Cl.Cl (configuration not stated) | 16 | 2 | 1 | 8 | 16 | 32 | 231 | 38.6 | 2 | 2 | 64 | 128 | 64 |
| CCCC/C=C\CCOP(=O)(CCN(CCCNC(=N)N)CCCNC(=N)N)OCCCCCCOP(=O)(CCN(CCCNC(=N)N)CCCNC(=N)N)OCC/C=C\CCCC.Cl.Cl.Cl.Cl.Cl.Cl (configuration not stated) | 8 | 1 | 0.2 | 4 | 0.5 | 16 | 169 | 333 | 1 | 1 | 2 | 32 | 16 |
| CCCCCCCCOP(=O)(CCN(CCCN)CCCN)OCCCCCCCCOP(=O)(CCN(CCCN)CCCN)OCCCCCCCC.Cl.Cl.Cl.Cl.Cl.Cl (configuration not stated) | 1 | 0.5 | 0.25 | 1 | 0.5 | 2 | 683 | 38.7 | 3 | 5 | 1 | 4 | 2 |
| Cl.Cl.Cl.Cl.Cl.Cl.NCCN(CCN)CCP(=O)(OCCCCCCOP(=O)(CCN(CCN)CCN)OCCc1ccccc1)OCCc1ccccc1 (configuration not stated) | > 128 | 32 | 128 | > 128 | > 128 | > 128 | > 200 | 30.9 | 16 | 64 | > 128 | > 128 | > 128 |
| CCCCCCCCCCOP(=O)(CCN(CCCN)CCCN)OCCCCCCOP(=O)(CCN(CCCN)CCCN)OCCCCCCCCCC.Cl.Cl.Cl.Cl.Cl.Cl (configuration not stated) | 1 | 1 | 0.2 | 1 | 1 | 1 | 16 | 44 | 0.5 | 0.5 | 1 | 1 | 2 |
| CCCCC/C=C\CCOP(=O)(CCN(CCCN)CCCN)OCCCOP(=O)(CCN(CCCN)CCCN)OCC/C=C\CCCCC.Cl.Cl.Cl.Cl.Cl.Cl (configuration not stated) | 8 | 2 | 4 | 2 | 4 | 8 | > 500 | 36.2 | 2 | 2 | 4 | 64 | 4 |
| Cl.Cl.Cl.Cl.Cl.Cl.NCCCN(CCCN)CCP(=O)(OCCCCCCCCCCCCOP(=O)(CCN(CCCN)CCCN)OCCc1ccccc1)OCCc1ccccc1 (configuration not stated) | 4 | 1 | 2 | 4 | 8 | 8 | 358 | 34.8 | 0.5 | 4 | 16 | 32 | 8 |
| CCC/C=C\CCOP(=O)(CCN(CCN)CCN)OCCCCCCCOP(=O)(CCN(CCN)CCN)OCC/C=C\CCC.Cl.Cl.Cl.Cl.Cl.Cl (configuration not stated) | 16 | 2 | 4 | > 128 | 16 | 32 | > 500 | 37.4 | 0.5 | 1 | 32 | 128 | 32 |
| Cl.Cl.Cl.Cl.Cl.Cl.NCCCN(CCCN)CCP(=O)(OCCCCCCCCOP(=O)(CCN(CCCN)CCCN)OCCc1ccccc1)OCCc1ccccc1 (configuration not stated) | 128 | 16 | 32 | 128 | 128 | 128 | > 200 | 27.3 | 8 | 16 | 128 | 128 | 128 |
| CCCCC/C=C\CCCOP(=O)(CCN(CCCN)CCCN)OCCCOP(=O)(CCN(CCCN)CCCN)OCCC/C=C\CCCCC.Cl.Cl.Cl.Cl.Cl.Cl (configuration not stated) | 2 | 1 | 2 | 1 | 2 | 2 | 271 | 39.8 | 1 | 1 | 1 | 8 | 2 |
| CCCC/C=C\CCOP(=O)(CCN(CCCN)CCCN)OCCCOP(=O)(CCN(CCCN)CCCN)OCC/C=C\CCCC.Cl.Cl.Cl.Cl.Cl.Cl (configuration not stated) | 128 | 16 | 32 | 128 | 128 | 64 | > 200 | 31.3 | 8 | 16 | 128 | > 128 | 128 |
| CCC/C=C\CCOP(=O)(CCN(CCCNC(=N)N)CCCNC(=N)N)OCCCCCCOP(=O)(CCN(CCCNC(=N)N)CCCNC(=N)N)OCC/C=C\CCC.Cl.Cl.Cl.Cl.Cl.Cl (configuration not stated) | 64 | 2 | 2 | 2 | 2 | 64 | > 500 | 29.7 | 2 | 2 | 2 | > 128 | 64 |
| CCCCCCCCCCOP(=O)(CCN(CCCN)CCCN)OCCCOP(=O)(CCN(CCCN)CCCN)OCCCCCCCCCC.Cl.Cl.Cl.Cl.Cl.Cl (configuration not stated) | 1 | 1 | 1 | 1 | 4 | 2 | 31.6 | 43.7 | 1 | 1 | 1 | 4 | 2 |
| CC/C=C\CCCOP(=O)(CCN(CCCN)CCCN)OCCCOP(=O)(CCN(CCCN)CCCN)OCCC/C=C\CC.Cl.Cl.Cl.Cl.Cl.Cl (configuration not stated) | > 128 | 128 | > 128 | > 128 | > 128 | > 128 | > 200 | 25.1 | 32 | 64 | > 128 | > 128 | > 128 |
| Cl.Cl.Cl.Cl.Cl.Cl.N=C(N)NCCCN(CCCNC(=N)N)CCP(=O)(OCCCCCOP(=O)(CCN(CCCNC(=N)N)CCCNC(=N)N)OCC12CC3CC(CC(C3)C1)C2)OCC12CC3CC(CC(C3)C1)C2 (configuration not stated) | 4 | 1 | 0.5 | 1 | 2 | 8 | 259 | 333 | 0.5 | 1 | 1 | 8 | 8 |
| CCCCCOP(=O)(CCN(CCN)CCN)OCCCCCCCCOP(=O)(CCN(CCN)CCN)OCCCCC.Cl.Cl.Cl.Cl.Cl.Cl (configuration not stated) | > 128 | 8 | 8 | 2 | > 128 | > 128 | > 200 | 34.7 | 2 | 8 | > 128 | > 128 | > 128 |
| CCCCCOP(=O)(CCN(CCCN)CCCN)OCCCCCCCCOP(=O)(CCN(CCCN)CCCN)OCCCCC.Cl.Cl.Cl.Cl.Cl.Cl (configuration not stated) | > 128 | 16 | 32 | > 128 | > 128 | > 128 | > 100 | 27.5 | 4 | 8 | > 128 | > 128 | 128 |
| CCC/C=C\CCOP(=O)(CCN(CCCN)CCCN)OCCCCCOP(=O)(CCN(CCCN)CCCN)OCC/C=C\CCC.Cl.Cl.Cl.Cl.Cl.Cl (configuration not stated) | > 128 | 32 | 64 | 128 | 128 | > 128 | > 250 | 28.2 | 128 | 32 | > 128 | > 128 | > 128 |
